In patent publication US20260138976A1 (Hoffmann-La Roche Inc., priority 2022, published 2026) one finds Emax, EC50 and IC50 data, which are given here for seven molecules.

Experiment [1] deals with MV-3 cells. The experiment in a line: T-cell - TCB - MV3 killing assay. The class given is cell-based, human. As to conditions: for Emax: Homo sapiens, MV-3, 120 h, % TCL normalized: MCSP-TCB only = neutral control, 20 μM reference compound A1 = 100%, read-out: MSCP TCB killing MV-3 cells 5 d Emax (%); for pEC50: primary human T-cells + MV-3 RFP cells, MCSP-TCB 1.5 pM-5 pM, 120 hours imaging, read-out: MSCP TCB killing MV-3 cells 5 d EC50. How it is done:
All culturing steps are executed at 5% CO2, 37° C. and 95% humidity. MV-3 RFP cells are cultured in MV-3 medium (DMEM+10% FBS, 1× PenStrep and 0.5 μg/mL Puromycin) for at least 3 weeks. Cultured MV-3 cells at 80% confluency are washed once with PBS−− and trypsinized until detached. […] Cells are seeded with 100 μL/well into a 96-well plate (TTP, #92696), and placed for 40 minutes without moving at room temperature in order to achieve evenly distributed attachment of cells. Plates are then incubated until further use.
On the next day, expanded primary human T-cells are thawed and resuspended in T-cell medium to 4*10^6 cells/mL. For 3 hours, they are cultured in a 6-well plate with 6 mL per well at maximum. After culturing the T-cells, they are filtered through a cell strainer (Miltenyi Biotech, #130-041-407), counted again, and cell concentration is adjusted to 2*10^6 cells/mL.
MCSP-TCB or PBS are pre-diluted in T-cell medium (concentration depending on T-cell donor), 4 times more concentrated than the end-concentration. 60 μL/well of pre-dilutions are then distributed into a round bottom plate (Costar, #3799) according to plate layout. Compounds are added in a 9 pt dose response with the Tecan D300e Digital Dispenser, as well 4 times more concentrated than the end-concentration. DMSO concentration of all wells is adjusted to 0.8%, resulting in 0.2% as final concentration.
60 μL per well of T-cell suspension are added to the prepared round bottom plate and resuspended with a manual multichannel. 100 μL/well of the resuspended T-cell suspension including treatments are then transferred cautiously to the over-night cultured MV-3 cells according to plate layout. 100 μL T-cell medium only is added to the outer MV-3 wells only. Final compound DR is starting at 20 μM with a dilution factor of 3.333. Final TCB concentration is between 1.5 pM to 5 pM and was determined for each T-cell donor individually by running TCB titrations. For each donor, a TCB concentration was chosen which corresponds to 10-20% MV3 baseline cell killing in the absence of compound treatment. Positive control is the reference compound A1 which is added in a DR, as well as additional wells with only 20 μM. 20 μM of reference compound A1 represent the positive stimulator control, TCB only (DMSO wells) the neutral control.
After transfer of T-cells with treatment pre-dilutions, MV-3 cells are imaged by time-lapse microscopy using IncucyteZOOM™ (Essen BioScience, MI, USA). Imaging is performed every 3 hours for a total of 120 hours (10× objective, phase and red image channels, acquisition time 400 ms, Green/Red 4614 optical module). RFP object count per well is analysed in the IncucyteZOOM™ Software (Version 2019B Rev2) with a mask that was previously created and optimized for MV-3 cells. Raw data is exported as object count/well and values are normalized as % TCL compared to wells with MV-3 only, representing 100% growth and therefore 0% TCL.
Calculated % TCL values are analysed in Genedata Screener using Roche Normalization PCT_POS_CTRL with MCSP-TCB only set as Neutral Control and 20 μM of the reference compound A1 set as Stimulator Control/100%.
Induced TCL by compounds without TCB treatment or toxicity (observed in the PBS condition) were be flagged.

Experiment [2] has as its target T1, DGKα (hDGKalpha(1-735)-N-His) (Homo sapiens, UniProt P23743).
T1 construct: hDGKalpha(1-735)-N-His; His (N); made in house; host or cells: Sf21 insect cells (baculovirus)
The experiment in a line: In vitro DGK inhibition assay, DGKalpha ADP Glo (in house). The format is biochemical. As to conditions: 4 nM DGKα, 25 μM ATP, 125 uM DLG in liposomes, 1 hour reaction. In short, it runs like this:
(§1)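 Full-length His-tagged human DGKα (4 nM) or DGKζ (2 nM), expressed in Sf21 cells, phosphorylated 125 µM DLG in PS/PC liposomes with ATP at 25 µM (α) or 50 µM (ζ) for 1 h. ADP was measured by ADP-Glo luminescence. Compounds were tested as 11-point 1:3 series in 2% DMSO.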

In experiment [3] the target is T2, DGKζ (hDGKzeta(1-928)-N-His) (Homo sapiens, UniProt Q13574).
T2 construct: hDGKzeta(1-928)-N-His; His (N); made in house; host or cells: Sf21 insect cells (baculovirus)
As to the kind of experiment: In vitro DGK inhibition assay, DGKzeta ADP Glo (in house). The class given is biochemical. As to conditions: 2 nM DGKζ, 50 μM ATP, 125 uM DLG in liposomes, 1 hour reaction. In outline: as §1

Experiment [4] concerns the target T3, DGK ζ kinase (Homo sapiens, UniProt Q13574).
T3 construct: purchased Reaction Biology Corp. (contract assay service)
The experiment in a line: DGKzeta kinase ADP Glo assay run by Reaction Biology Corp. The class given is biochemical. As to conditions: 2 nM kinase, 50 µM ATP, 500 μM DLG, 10-dose duplicate. On the procedure: DGK α and ζ kinases use ATP to phosphorylate the substrate 1,2-dilauroyl-sn-glycerol (DLG). ATP is converted to ADP as a result of this enzymatic reaction.
After the kinase reaction, an ATP-depletion reagent is added to terminate the kinase reaction and deplete any remaining ATP, leaving only ADP. Second, a detection reagent is added to simultaneously convert ADP to ATP and allow the newly synthesized ATP to be converted to light using a coupled luciferase/luciferin reaction.
DGK α and ζ kinase ADP Glo assays were ran by Reaction Biology Corp., 1 Great Valley Parkway, Suite 2, Malvern, 19355, PA, USA. Information provided by the service provider are the following: DGK α and ζ kinases were used at 2 nM final concentration. Reactions were carried out at 50 µM ATP. 500 μM of the substrate DLG (Dilauroyl-sn-glycerol) was used.
For orientation: In ADP-Glo the light output rises with the ADP produced.

pEC50, pIC50: −log10 of the molar value.

T1 sequence (P23743 whole entry): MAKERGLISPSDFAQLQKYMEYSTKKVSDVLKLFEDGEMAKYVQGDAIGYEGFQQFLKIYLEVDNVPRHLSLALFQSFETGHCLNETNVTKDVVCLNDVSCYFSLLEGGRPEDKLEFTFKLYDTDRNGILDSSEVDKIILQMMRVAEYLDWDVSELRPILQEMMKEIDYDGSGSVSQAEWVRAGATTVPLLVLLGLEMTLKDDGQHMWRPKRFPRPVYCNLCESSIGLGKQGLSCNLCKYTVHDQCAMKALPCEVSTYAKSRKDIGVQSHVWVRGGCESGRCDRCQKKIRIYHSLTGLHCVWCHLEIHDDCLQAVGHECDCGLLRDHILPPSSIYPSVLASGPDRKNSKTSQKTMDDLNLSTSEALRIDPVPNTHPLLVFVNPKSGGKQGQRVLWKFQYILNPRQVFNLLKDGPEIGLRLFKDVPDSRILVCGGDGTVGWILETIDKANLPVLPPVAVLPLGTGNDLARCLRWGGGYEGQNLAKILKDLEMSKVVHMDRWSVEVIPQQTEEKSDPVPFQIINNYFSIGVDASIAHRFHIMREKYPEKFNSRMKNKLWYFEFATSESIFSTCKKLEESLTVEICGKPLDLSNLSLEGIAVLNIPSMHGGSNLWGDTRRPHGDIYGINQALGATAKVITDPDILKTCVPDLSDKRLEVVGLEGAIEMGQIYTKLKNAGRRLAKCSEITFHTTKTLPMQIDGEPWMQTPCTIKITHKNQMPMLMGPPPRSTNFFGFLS
T3 sequence (Q13574 whole entry): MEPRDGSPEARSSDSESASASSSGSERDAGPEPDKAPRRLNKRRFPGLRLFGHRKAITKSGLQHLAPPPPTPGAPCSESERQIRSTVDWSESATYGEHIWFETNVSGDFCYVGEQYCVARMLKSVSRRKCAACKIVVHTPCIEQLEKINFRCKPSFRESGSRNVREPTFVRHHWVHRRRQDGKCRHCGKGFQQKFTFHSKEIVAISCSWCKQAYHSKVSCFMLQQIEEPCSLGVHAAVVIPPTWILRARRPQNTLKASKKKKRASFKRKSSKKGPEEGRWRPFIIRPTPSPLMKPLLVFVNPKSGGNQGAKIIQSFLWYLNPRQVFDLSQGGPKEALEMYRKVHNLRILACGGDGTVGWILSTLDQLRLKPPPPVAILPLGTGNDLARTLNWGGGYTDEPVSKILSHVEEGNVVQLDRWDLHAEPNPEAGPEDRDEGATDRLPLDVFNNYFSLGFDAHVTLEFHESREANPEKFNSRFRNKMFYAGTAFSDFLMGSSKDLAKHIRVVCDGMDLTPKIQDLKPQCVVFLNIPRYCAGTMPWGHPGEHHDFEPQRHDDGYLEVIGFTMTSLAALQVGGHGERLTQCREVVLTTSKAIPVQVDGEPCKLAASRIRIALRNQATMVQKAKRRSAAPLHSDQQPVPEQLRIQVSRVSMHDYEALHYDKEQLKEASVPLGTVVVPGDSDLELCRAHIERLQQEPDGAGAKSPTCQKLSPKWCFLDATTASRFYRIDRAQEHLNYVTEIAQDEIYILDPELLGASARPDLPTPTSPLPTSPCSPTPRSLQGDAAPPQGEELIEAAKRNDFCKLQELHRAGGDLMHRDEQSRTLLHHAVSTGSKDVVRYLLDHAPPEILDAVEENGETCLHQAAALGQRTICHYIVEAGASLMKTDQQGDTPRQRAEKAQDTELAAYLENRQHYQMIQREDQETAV
T2 sequence (Q13574 whole entry): as above

Regarding `CC(N)(c1nnc(-c2ccc3c(c2)N(Cc2ccc(-c4noc(C(F)(F)F)n4)cc2)C(=O)[C@@H](N)CS3(=O)=O)o1)C(F)(F)F` (stereo partly drawn) [Example 32, (3R)-3-amino-7-[5-(1-amino-2,2,2-trifluoro-1-methyl-ethyl)-1,3,4-oxadiazol-2-yl]-1,1-dioxo-5-[[4-[5-(trifluoromethyl)-1,2,4-oxadiazol-3-yl]phenyl]methyl]-2,3-dihydro-1λ^6,5-benzothiazepin-4-one], the Emax (in general, the greatest response seen or fitted, relative to the assay's reference) in experiment [1] worked out at 100%. Moreover, the pEC50 (usually −log10 of the EC50, conventionally taken in molar units) in experiment [1] was 6.92. Also, the pIC50 (commonly the IC50 on a negative log10 scale, so that one unit is a factor of ten) is 4.41 in experiment [2], 5.76 in experiment [3] and 6.89 in experiment [4].

Regarding `CC(C)(C#N)c1nnc(-c2cc3c(cc2F)S(=O)(=O)C[C@H](N)C(=O)N3Cc2ccc(-c3ccc(C(F)(F)F)cn3)cc2)o1` [Example 88, 2-[5-[(3R)-3-amino-8-fluoro-1,1,4-trioxo-5-[[4-[5-(trifluoromethyl)-2-pyridyl]phenyl]methyl]-2,3-dihydro-1λ^6,5-benzothiazepin-7-yl]-1,3,4-oxadiazol-2-yl]-2-methyl-propanenitrile], the pIC50 in experiment [2] is 6.12; in experiment [3], 6.74; in experiment [4] it was 8.39.

`N[C@H]1CS(=O)(=O)c2ccc(-c3nnc(C4(C5CC5)CCCO4)o3)cc2N(Cc2ccc(-c3noc(C(F)(F)F)n3)cc2)C1=O` (stereo partly drawn) [Example 36, (3R)-3-amino-7-[5-(2-cyclopropyl-tetrahydrofuran-2-yl)-1,3,4-oxadiazol-2-yl]-1,1-dioxo-5-[[4-[5-(trifluoromethyl)-1,2,4-oxadiazol-3-yl]phenyl]methyl]-2,3-dihydro-1λ^6,5-benzothiazepin-4-one]: the pIC50 is 5.58 in experiment [2], 6.02 in experiment [3] and 7.29 in experiment [4].

As for `CC(O)(c1nnc(-c2ccc3c(c2)N(Cc2ccc(-c4noc(C(F)(F)F)n4)cc2)C(=O)[C@@H](N)CS3(=O)=O)o1)C(F)(F)F` (stereo partly drawn) [Example 96, (3R)-3-amino-1,1-dioxo-7-[5-(2,2,2-trifluoro-1-hydroxy-1-methyl-ethyl)-1,3,4-oxadiazol-2-yl]-5-[[4-[5-(trifluoromethyl)-1,2,4-oxadiazol-3-yl]phenyl]methyl]-2,3-dihydro-1λ^6,5-benzothiazepin-4-one], the results for the pIC50 in experiment [2], in experiment [3] and in experiment [4] were 4.61, 5.47 and 6.97, respectively.

With `N[C@H]1CS(=O)(=O)c2ccc(-c3nnc(C4(N)CCCCC4)o3)cc2N(Cc2ccc(-c3noc(C(F)(F)F)n3)cc2)C1=O` [Example 39, (3R)-3-amino-7-[5-(1-aminocyclohexyl)-1,3,4-oxadiazol-2-yl]-1,1-dioxo-5-[[4-[5-(trifluoromethyl)-1,2,4-oxadiazol-3-yl]phenyl]methyl]-2,3-dihydro-1λ^6,5-benzothiazepin-4-one], the maximum response (Emax) in experiment [1] was determined as 72%. Further, the pEC50 in experiment [1] was 6.72. The pIC50 is 4.72 in experiment [2], 5.75 in experiment [3] and 7.25 in experiment [4].

Consider `CC(C)(C)c1nnc(-c2ccc3c(c2)N(Cc2ccc(-c4nnc(C(F)(F)F)o4)cc2)C(=O)[C@@H](N)CS3(=O)=O)o1` [Example 24, (3R)-3-amino-7-(5-tert-butyl-1,3,4-oxadiazol-2-yl)-1,1-dioxo-5-[[4-[5-(trifluoromethyl)-1,3,4-oxadiazol-2-yl]phenyl]methyl]-2,3-dihydro-1λ^6,5-benzothiazepin-4-one], for which the Emax in experiment [1] stood at 108%. Moreover, the pEC50 in experiment [1] was 6.56. The figures for the pIC50 in experiment [2], in experiment [3] and in experiment [4] were 5.01, 5.84 and 6.29, respectively.

On to `CC(C#N)c1nnc(-c2ccc3c(c2)N(Cc2ccc(-c4noc(C(F)(F)F)n4)cc2)C(=O)[C@@H](N)CS3(=O)=O)o1` (stereo partly drawn) [Example 35, 2-[5-[(3R)-3-amino-1,1,4-trioxo-5-[[4-[5-(trifluoromethyl)-1,2,4-oxadiazol-3-yl]phenyl]methyl]-2,3-dihydro-1λ^6,5-benzothiazepin-7-yl]-1,3,4-oxadiazol-2-yl]propanenitrile], for which, in experiment [1], the Emax is 91% and the negative logarithm of the EC50 (pEC50) was 6.43. The pIC50 in experiment [2] was 5.00. This molecule also showed a negative-log IC50 (pIC50) in experiment [3] of 5.51.
